Reference: patent publication US20040022850A1, “Modified release formulation” (priority 2000, published 2004)
Converted amounts (≈) assume the structure as drawn.

Assay: Solubility of the model drugs
Type: physicochemical

Row | SMILES | solubility
1 | CCCCOC(=O)c1ccc(O)cc1 [butyl paraben] | 200 µg/mL (≈ 1030 µM)
2 | CC(C)n1c(/C=C/C(O)CC(O)CC(=O)O)c(-c2ccc(F)cc2)c2ccccc21 (centres unmarked) [fluvastatin] | > 50000 µg/mL
